Laboratory results reported in ChEMBL document CHEMBL4184213, “Essential structure of orexin 1 receptor antagonist YNT-707, Part II: Drastic effect of the 14-hydroxy group on the orexin 1 receptor antagonistic activity” (Bioorg Med Chem Lett, 2018).

Tests used:
Orexin receptor type 2 = biological target: T1, Orexin receptor type 2 (Homo sapiens, UniProt O43614); assay: Antagonist activity at human OX2R expressed in CHOK1 cells assessed as inhibition of orexin A-induced intracellular Ca2+ release preincubated for 15 mins followed by orexin A addition by Fura 2-AM dye based fluorescence assay; type: functional, cell-based
T1 sequence (O43614 whole entry): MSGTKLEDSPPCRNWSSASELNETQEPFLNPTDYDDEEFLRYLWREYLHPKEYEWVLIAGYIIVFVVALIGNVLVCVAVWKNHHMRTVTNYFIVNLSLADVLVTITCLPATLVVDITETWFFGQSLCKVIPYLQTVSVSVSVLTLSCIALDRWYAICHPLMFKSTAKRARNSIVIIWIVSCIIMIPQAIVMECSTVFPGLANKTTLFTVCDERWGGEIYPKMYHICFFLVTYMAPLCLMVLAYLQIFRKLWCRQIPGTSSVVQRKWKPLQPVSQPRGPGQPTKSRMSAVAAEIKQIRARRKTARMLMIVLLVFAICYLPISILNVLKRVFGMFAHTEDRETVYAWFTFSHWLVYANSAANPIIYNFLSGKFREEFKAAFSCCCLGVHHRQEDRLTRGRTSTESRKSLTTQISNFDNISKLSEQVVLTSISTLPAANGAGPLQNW

[1] = biological target: T2, Orexin/Hypocretin receptor type 1 (Homo sapiens, UniProt O43613); assay: Antagonist activity at human OX1R expressed in CHOK1 cells assessed as inhibition of orexin A-induced intracellular Ca2+ release preincubated for 15 mins followed by orexin A addition by Fura 2-AM dye based fluorescence assay; type: functional, cell-based
T2 sequence (O43613 whole entry): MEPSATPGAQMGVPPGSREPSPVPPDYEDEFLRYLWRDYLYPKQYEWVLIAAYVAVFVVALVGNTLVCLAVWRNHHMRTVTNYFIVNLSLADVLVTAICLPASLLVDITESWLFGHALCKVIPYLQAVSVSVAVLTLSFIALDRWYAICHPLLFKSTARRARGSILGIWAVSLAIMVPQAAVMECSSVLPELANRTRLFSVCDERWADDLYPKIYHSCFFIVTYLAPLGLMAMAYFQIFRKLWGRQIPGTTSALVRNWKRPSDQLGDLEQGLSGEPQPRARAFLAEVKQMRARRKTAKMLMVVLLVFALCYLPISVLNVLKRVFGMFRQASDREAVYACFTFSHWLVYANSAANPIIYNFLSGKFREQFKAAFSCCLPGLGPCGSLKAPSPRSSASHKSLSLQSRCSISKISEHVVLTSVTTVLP

| Compound | Ki (Orexin receptor type 2) | Ki [1] |
| --- | --- | --- |
| COc1ccc2c3c1O[C@H]1[C@@H](N(C)C(=O)/C=C/c4ccoc4)CC[C@@]4(O)[C@@H](C2)N(S(=O)(=O)c2ccccc2)CC[C@]314 | > 10000 nM |  |
| COc1ccc2c3c1O[C@H]1[C@H](N(C)C(=O)/C=C/c4ccoc4)CC[C@@]4(O)[C@@H](C2)N(S(=O)(=O)c2ccccc2)CC[C@]314 | > 10000 nM |  |
| COc1ccc2c3c1O[C@H]1[C@@H](N(C)C(=O)/C=C/c4ccoc4)CC=C4[C@@H](C2)N(S(=O)(=O)c2ccccc2)CC[C@]431 | 123 nM | 17.8 nM |
| COc1ccc2c3c1O[C@H]1[C@@H](N(C)C(=O)/C=C/c4ccoc4)CC[C@H]4[C@@H](C2)N(S(=O)(=O)c2ccccc2)CC[C@@]341 | > 10000 nM | 187 nM |
| COc1ccc2c3c1O[C@H]1[C@H](N(C)C(=O)/C=C/c4ccoc4)CC=C4[C@@H](C2)N(S(=O)(=O)c2ccccc2)CC[C@]431 | > 10000 nM | 2.06 nM |
| COc1ccc2c3c1O[C@H]1[C@H](N(C)C(=O)/C=C/c4ccoc4)CC[C@H]4[C@@H](C2)N(S(=O)(=O)c2ccccc2)CC[C@@]341 | > 10000 nM | 1.97 nM |
